Key:
BACE1 [1] = target: T1, BACE1 (Homo sapiens, UniProt P56817); assay: BACE1 activity assay (FRET, cell-free); type: biochemical; set-up: purchased Pan Vera Co., Madison, Wis., USA; conditions: peptide final concentration 20 μM, 90 minutes, room temperature
Procedure: BACE1 Activity Assay—The BACE1 inhibiting activity of APP-based BACE1 site binding peptides were determined using a fluorescence resonance energy transfer (FRET) assay (Pan Vera Co., Madison, Wis., USA), which employs a recombinant baculovirus-expressed BACE1 and a specific substrate (Rh-[…]-quencher) that is based on the APPswe mutation. This specific peptide substrate becomes highly fluorescent upon enzymatic cleavage. A mixture of 10 μL of BACE1 (1.0 U/mL in 50 mM Tris, pH7.5, 10% glycerol), 10 μL of FRET-substrate, and 10 μL of the various APP-based BACE1 site binding peptides (final concentration 20 μM) were incubated for 90 minutes in the dark at room temperature. Then, 10 μL of BACE1 stop buffer (2.5 M sodium acetate) was added to the mixture. Fluorescence was read using a fluorometer, with excitation at 545 nm and emission at 585 nm.
As a required enzyme for the generation of neurotoxic Aβ from APP, BACE1 is well established as an important mediator of AD β-amyloid pathology. As such, it has become an important target for new disease modifying therapeutics. However, since BACE1 also has important physiological roles, abolishment of the enzyme or its activity may lead to deleterious side effects as evidenced by numerous failed clinical trials discussed previously. […] Since previous studies have established a close relationship between α-helix structure and peptide-protein (or protein-protein) interactions (Azzarito, 2013; Rao et al., 2013), several APP based peptides were synthesized that might serve as a preferable substrate for BACE1. Importantly, these peptides were free of the Aβ-containing segment and, thus, cannot be amyloidogenic. In theory, these could be used to “hijack” the BACE1 processing of endogenous APP and lead to a decrease in cerebral Aβ. These BACE1 substrates and controls were incubated with recombinant BACE1 and percent of inhibition of the enzyme was calculated. […] These findings indicate that the α-helical TAT fusion domain may help to promote selective APPsweBBP proteolysis by BACE1, yielding substrate competition against human wild-type APP.

[2] = system: CHO cells over-expressing human Swedish mutant APP (CHO/APPswe); assay: Aβ and sAPPα production in cultured media of CHO/APPswe cells by ELISA; type: cell-based, Chinese hamster; conditions: 20 μg/mL, 24 hours
Procedure: Cell Culture—Chinese hamster ovary (CHO) cells engineered to express wild-type human APP (CHO/APPwt cells) or Swedish mutant human APP (CHO/APPswe cells) were kindly provided by Dr. Stefanie Hahn and Dr. Sascha Weggen (University of Heinrich Heine, Dusseldorf, Germany). As described previously (Obregon et al., 2012), these cells were cultured in Dulbecco's modified Eagle's medium (DMEM) with 10% fetal bovine serum (FBS), 1 mM sodium pyruvate, and 100 units/mL of penicillin and streptomycin.
To confirm the binding of APPsweBBP with BACE1, CHO/APPwt cells were plated in 8-well chambers (5×10^5/well), incubated with TAT-APPsweBBP-biotin or APPsweBBP-biotin at 20 μM for 30 minutes, fixed with 4% paraformaldehyde for 20 minutes, washed and permeabilized with 0.5% Triton X-100. Following application of blocking buffer, these cells were stained with mouse anti-BACE1 and rabbit anti-biotin antibodies overnight at 4° C. for immunocytochemistry analysis. In order to determine the inhibitory effects of TAT-APPsweBBP on BACE1-mediated APP β-cleavage and subsequent Aβ production, both CHO/APPwt and CHO/APPswe cells were plated in 24 well-plates (3×10^5/well) and treated with TAT-APPsweBBP at 0-20 μM for 24 hours. The cultured media were collected for Aβ analysis by enzyme-linked immunosorbent assay (ELISA) and sAPPα analysis by ELISA and Western blot (WB). Cell lysates were also prepared for analysis of APP amyloidogenic processing by WB.
ELISA—Mouse brains were homogenized in ice-cold lysis buffer for 30 seconds using a Minilys tissue homogenizer (Bertin Technologies, Montigny-le-Bretonneux, France) set at high speed, allowed to stand for 15 minutes at 4° C., and centrifuged at 15,000 rpm for 30 minutes. Soluble Aβ1-40/42 species and sAPPα were directly detected in cultured cell media or brain homogenates using the Aβ1-40/42 (Invitrogen) and sAPPα ELISA kits (IBL-America, Minneapolis, Minn., USA).
To further examine the ability of the Swedish mutant APP BACE1 binding peptide/Tat fusion peptides to decrease Aβ production, CHO cells overexpressing either human wild-type APP (CHO/APPwt cells) or Swedish mutant APP (hereinafter referred to as “CHO/APPswe cells”) are treated with a variety of APP-based BACE1 inhibitor peptides, as shown in Table 1 and Table 2. Aβ production is determined using ELISA.

BACE1 [3] = target: T1, BACE1; assay: Binding to and cleavage by recombinant BACE1 (WB, IP); conditions: biotin-labeled peptide, recombinant BACE1, 4 hours
Procedure: Biotin-labeled TAT-APPsweBBP was incubated with or without recombinant BACE1 protein and examined by western blot (A). Full length TAT-APPsweBBP and β-cleaved TAT-APPsweBBP were clearly detected. Immunoprecipitation (IP) with anti-BACE1 antibody and subsequent WB with anti-biotin antibody (B) and IP with anti-biotin antibody and then WB with anti-BACE1 antibody (C) both reveal that TAT-APPsweBBP, but not TAT peptide, binds to BACE1. To further confirm TAT-APPswcBPP can bind to BACE1, human wild-type APP expressing CHO cells were incubated with biotin-labeled TAT-APPsweBBP or biotin-labeled APPsweBBP at 20 μM for 30 minutes, and then stained with anti-BACE1 or anti-biotin antibodies (D). […] In addition, these treated cells were further analyzed by IP with anti-biotin and subsequent WB with anti-BACE1 antibodies (E), with results showing that TAT-APPsweBBP strongly and specifically binds to BACE1.
In order to confirm that APPsweBBP containing the β-cleavage site could bind to and be consequently proteolyzed by BACE1, 10 μg of biotin-labeled TAT-APPsweBBP was incubated with or without 10 μL of recombinant BACE1 protein (1.0 U/mL) in BACE1 reaction buffer for 4 hours at 37° C. and then subjected to Western blot (WB) analysis as described previously (Rezai-Zadeh et al., 2005; Obregon et al., 2012). […]

T1 sequence (P56817 46-501): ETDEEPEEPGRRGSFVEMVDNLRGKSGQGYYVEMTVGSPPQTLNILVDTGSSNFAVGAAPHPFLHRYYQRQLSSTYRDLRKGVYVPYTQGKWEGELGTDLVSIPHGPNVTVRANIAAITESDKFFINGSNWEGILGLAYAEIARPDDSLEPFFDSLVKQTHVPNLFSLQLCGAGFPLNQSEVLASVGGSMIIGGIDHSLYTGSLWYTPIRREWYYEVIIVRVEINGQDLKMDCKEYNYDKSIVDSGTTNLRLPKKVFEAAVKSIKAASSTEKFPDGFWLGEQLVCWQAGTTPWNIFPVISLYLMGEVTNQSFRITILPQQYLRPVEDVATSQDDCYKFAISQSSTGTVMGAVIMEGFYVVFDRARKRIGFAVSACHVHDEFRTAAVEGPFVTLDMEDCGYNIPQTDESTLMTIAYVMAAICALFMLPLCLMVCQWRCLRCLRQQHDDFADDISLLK

YGRKKRRQRRR [TAT, reference compound]
% of inhibition (mean ± SD) of BACE1 (BACE1 [1]): 3.32 ± 0.02%
Secreted Aβ40 (ng/mg; mean ± SD) [2]: 66.71 ± 12.02 ng/mg
Secreted Aβ42 (ng/mg; mean ± SD) [2]: 10.76 ± 2.12 ng/mg
Secreted sAPPα (ng/mg; mean ± SD) [2]: 196.98 ± 17.77 ng/mg
binding to BACE1 protein (IP/WB) (BACE1 [3]): not observed
